Measurements reported in the OligoGym collection.
Several values for one entry are separate records, joined by “and”; a condition that tells them apart may be missing. Equal values may be shown once. HELM strings list units from the 5' end as sugar, base in round brackets, then linkage (d deoxyribose, r ribose, m 2'-O-methyl, p phosphodiester). Methylation of C is not given here. [moe] = 2'-O-(2-methoxyethyl) (MOE); [cEt] = constrained ethyl (cEt); [sp] = phosphorothioate linkage

Biological target: HBV
Conditions: ASO

Substance: RNA1{[moe](G)[sp].[moe](G)[sp].[moe](C)[sp].[cEt](A)[sp].[cEt](T)[sp].d(A)[sp].d(G)[sp].d(C)[sp].d(A)[sp].d(G)[sp].d(C)[sp].d(A)[sp].d(G)[sp].[moe](G)[sp].[moe](A)[sp].[moe](T)[sp].[moe](G)}$$$$V2.0
- target mRNA inhibition (HepG2, 0.009375 µM): 17%
- target mRNA inhibition (HepG2, 0.01875 µM): 32%
- target mRNA inhibition (HepG2, 0.0375 µM): 52%
- target mRNA inhibition (HepG2, 0.075 µM): 68%
- target mRNA inhibition (HepG2, 0.15 µM): 77%
- target mRNA inhibition (HepG2, 0.3 µM): 81%

Substance: RNA1{[moe](G)[sp].[moe](A)[sp].[moe](A)[sp].d(G)[sp].d(C)[sp].d(G)[sp].d(A)[sp].d(A)[sp].d(G)[sp].d(T)[sp].d(G)[sp].d(C)[sp].d(A)[sp].[cEt](C)[sp].[cEt](A)[sp].[cEt](C)}$$$$V2.0
- target mRNA inhibition (HepG2, 0.07 µM): 67%

Substance: RNA1{[moe](T)[sp].[moe](G)[sp].[moe](C)[sp].d(A)[sp].d(G)[sp].d(A)[sp].d(G)[sp].d(G)[sp].d(T)[sp].d(G)[sp].d(A)[sp].d(A)[sp].[moe](G)[sp].[moe](C)[sp].[moe](G)[sp].[moe](A)}$$$$V2.0
- target mRNA inhibition (HepG2, 0.07 µM): 51% and 56%

Substance: RNA1{[moe](A)[sp].[moe](T)[sp].[moe](T)[sp].[moe](T)[sp].[moe](A)[sp].d(T)[sp].d(G)[sp].d(C)[sp].d(C)[sp].d(T)[sp].d(A)[sp].d(C)[sp].d(A)[sp].d(G)[sp].[moe](C)[sp].[moe](C)[sp].[moe](T)}$$$$V2.0
- target mRNA inhibition (HepG2, 0.07 µM): 70% and 48%

Substance: RNA1{[moe](C)[sp].[moe](A)[sp].[moe](C)[sp].[moe](T)[sp].[moe](A)[sp].d(G)[sp].d(T)[sp].d(A)[sp].d(A)[sp].d(A)[sp].d(C)[sp].d(T)[sp].d(G)[sp].d(A)[sp].[moe](G)[sp].[moe](C)}$$$$V2.0
- target mRNA inhibition (HepG2, 0.07 µM): 59% and 60%

Substance: RNA1{[moe](T)[sp].[cEt](C)[sp].d(C)[sp].d(G)[sp].d(C)[sp].d(A)[sp].d(G)[sp].d(T)[sp].d(A)[sp].d(T)[sp].d(G)[sp].d(G)[sp].[cEt](A)[sp].[moe](T)[sp].[cEt](C)[sp].[moe](G)}$$$$V2.0
- target mRNA inhibition (HepG2, 0.0092593 µM): 33%
- target mRNA inhibition (HepG2, 0.0277778 µM): 56%
- target mRNA inhibition (HepG2, 0.07 µM): 85% and 81%
- target mRNA inhibition (HepG2, 0.0833333 µM): 80%
- target mRNA inhibition (HepG2, 0.25 µM): 92%

Substance: RNA1{[moe](C)[sp].[moe](C)[sp].d(G)[sp].d(C)[sp].d(A)[sp].d(G)[sp].d(T)[sp].d(A)[sp].d(T)[sp].d(G)[sp].d(G)[sp].[moe](A)[sp].[moe](T)[sp].[moe](C)[sp].[moe](G)[sp].[moe](G)}$$$$V2.0
- target mRNA inhibition (HepG2, 0.07 µM): 63% and 52%

Substance: RNA1{[moe](C)[sp].[moe](G)[sp].[moe](T)[sp].d(G)[sp].d(C)[sp].d(A)[sp].d(G)[sp].d(A)[sp].d(G)[sp].d(G)[sp].d(T)[sp].d(G)[sp].[moe](A)[sp].[moe](A)[sp].[moe](G)[sp].[moe](C)[sp].[moe](G)}$$$$V2.0
- target mRNA inhibition (HepG2, 0.07 µM): 70% and 64%

Substance: RNA1{[moe](G)[sp].[moe](A)[sp].[moe](G)[sp].d(G)[sp].d(T)[sp].d(G)[sp].d(A)[sp].d(A)[sp].d(G)[sp].d(C)[sp].d(G)[sp].d(A)[sp].d(A)[sp].[cEt](G)[sp].[cEt](T)[sp].[cEt](G)}$$$$V2.0
- target mRNA inhibition (HepG2, 0.07 µM): 67% and 57%

Substance: RNA1{[moe](A)[sp].[moe](A)[sp].[moe](G)[sp].d(C)[sp].d(G)[sp].d(A)[sp].d(A)[sp].d(G)[sp].d(T)[sp].d(G)[sp].d(C)[sp].d(A)[sp].[moe](C)[sp].[moe](A)[sp].[moe](C)[sp].[moe](G)[sp].[moe](G)}$$$$V2.0
- target mRNA inhibition (HepG2, 0.07 µM): 81% and 73%

Substance: RNA1{[moe](G)[sp].[cEt](G)[sp].[cEt](C)[sp].d(A)[sp].d(T)[sp].d(A)[sp].d(G)[sp].d(C)[sp].d(A)[sp].d(G)[sp].d(C)[sp].d(A)[sp].d(G)[sp].[cEt](G)[sp].[cEt](A)[sp].[moe](T)}$$$$V2.0
- target mRNA inhibition (HepG2, 0.07 µM): 75% and 64%

Substance: RNA1{[moe](A)[sp].[moe](A)[sp].d(T)[sp].d(T)[sp].d(T)[sp].d(A)[sp].d(T)[sp].d(G)[sp].d(C)[sp].d(C)[sp].d(T)[sp].[moe](A)[sp].[moe](C)[sp].[moe](A)[sp].[moe](G)[sp].[moe](C)}$$$$V2.0
- target mRNA inhibition (HepG2, 0.07 µM): 27% and 19%

Substance: RNA1{[moe](G)[sp].[cEt](G)[sp].[cEt](C)[sp].d(A)[sp].d(G)[sp].d(A)[sp].d(G)[sp].d(G)[sp].d(T)[sp].d(G)[sp].d(A)[sp].d(A)[sp].d(A)[sp].[cEt](A)[sp].[cEt](A)[sp].[moe](G)}$$$$V2.0
- target mRNA inhibition (HepG2, 0.07 µM): 50% and 49%

Substance: RNA1{[moe](A)[sp].[moe](C)[sp].[moe](G)[sp].d(G)[sp].d(G)[sp].d(C)[sp].d(A)[sp].d(A)[sp].d(C)[sp].d(A)[sp].d(T)[sp].d(A)[sp].[moe](C)[sp].[moe](C)[sp].[moe](T)[sp].[moe](T)}$$$$V2.0
- target mRNA inhibition (HepG2, 0.07 µM): 48% and 39%

Substance: RNA1{[moe](A)[sp].[moe](G)[sp].[moe](G)[sp].[moe](T)[sp].[moe](G)[sp].d(A)[sp].d(A)[sp].d(G)[sp].d(C)[sp].d(G)[sp].d(A)[sp].d(A)[sp].d(G)[sp].d(T)[sp].[moe](G)[sp].[moe](C)}$$$$V2.0
- target mRNA inhibition (HepG2, 0.07 µM): 50% and 44%

Substance: RNA1{[moe](C)[sp].[moe](G)[sp].[moe](A)[sp].[moe](A)[sp].d(C)[sp].d(C)[sp].d(A)[sp].d(C)[sp].d(T)[sp].d(G)[sp].d(A)[sp].d(A)[sp].d(C)[sp].[moe](A)[sp].[moe](A)[sp].[moe](A)}$$$$V2.0
- target mRNA inhibition (HepG2, 0.07 µM): 44% and 32%

Substance: RNA1{[moe](A)[sp].[moe](C)[sp].[moe](T)[sp].[moe](G)[sp].d(G)[sp].d(A)[sp].d(G)[sp].d(C)[sp].d(C)[sp].d(A)[sp].d(C)[sp].d(C)[sp].d(A)[sp].[moe](G)[sp].[moe](C)[sp].[moe](A)[sp].[moe](G)}$$$$V2.0
- target mRNA inhibition (HepG2, 0.07 µM): 40% and 41%

Substance: RNA1{[moe](G)[sp].[moe](T)[sp].[moe](G)[sp].d(A)[sp].d(A)[sp].d(G)[sp].d(C)[sp].d(G)[sp].d(A)[sp].d(A)[sp].d(G)[sp].d(T)[sp].d(G)[sp].[cEt](C)[sp].[cEt](A)[sp].[cEt](C)}$$$$V2.0
- target mRNA inhibition (HepG2, 0.0092593 µM): 0%
- target mRNA inhibition (HepG2, 0.0277778 µM): 32%
- target mRNA inhibition (HepG2, 0.07 µM): 74% and 84%
- target mRNA inhibition (HepG2, 0.0833333 µM): 68%
- target mRNA inhibition (HepG2, 0.25 µM): 86%

Substance: RNA1{[moe](A)[sp].[moe](A)[sp].d(C)[sp].d(T)[sp].d(G)[sp].d(G)[sp].d(A)[sp].d(G)[sp].d(C)[sp].d(C)[sp].d(A)[sp].[moe](C)[sp].[moe](C)[sp].[moe](A)[sp].[moe](G)[sp].[moe](C)[sp].[moe](A)}$$$$V2.0
- target mRNA inhibition (HepG2, 0.07 µM): 68% and 53%

Substance: RNA1{[moe](A)[sp].[moe](A)[sp].[moe](G)[sp].[moe](A)[sp].[moe](T)[sp].[moe](G)[sp].d(A)[sp].d(G)[sp].d(G)[sp].d(C)[sp].d(A)[sp].d(T)[sp].d(A)[sp].d(G)[sp].d(C)[sp].[moe](A)[sp].[moe](G)}$$$$V2.0
- target mRNA inhibition (HepG2, 0.07 µM): 65% and 41%

Substance: RNA1{[moe](A)[sp].[moe](A)[sp].[moe](C)[sp].d(T)[sp].d(G)[sp].d(G)[sp].d(A)[sp].d(G)[sp].d(C)[sp].d(C)[sp].d(A)[sp].d(C)[sp].d(C)[sp].[cEt](A)[sp].[cEt](G)[sp].[cEt](C)}$$$$V2.0
- target mRNA inhibition (HepG2, 0.07 µM): 56% and 63%

Substance: RNA1{[moe](C)[sp].[cEt](C)[sp].[cEt](A)[sp].d(C)[sp].d(T)[sp].d(G)[sp].d(A)[sp].d(A)[sp].d(C)[sp].d(A)[sp].d(A)[sp].d(A)[sp].d(T)[sp].[cEt](G)[sp].[cEt](G)[sp].[moe](C)}$$$$V2.0
- target mRNA inhibition (HepG2, 0.0092593 µM): 11%
- target mRNA inhibition (HepG2, 0.0277778 µM): 28%
- target mRNA inhibition (HepG2, 0.07 µM): 78% and 84%
- target mRNA inhibition (HepG2, 0.0833333 µM): 68%
- target mRNA inhibition (HepG2, 0.25 µM): 89%
